The target in experiment [1] is dopaminergic receptors D2 (Homo sapiens, UniProt P14416). Briefly: Radioligand binding assay, dopaminergic D2 receptors. Particulars: binding assay, test compound 1×10^−6 M. An excerpt: (§1) The specific ligand binding to the receptors is defined as the difference between the total binding and the non-specific binding determined in the presence of the excess of unlabelled ligand.
(§2) The results are expressed as a percent of control specific binding ((measured specific binding/control specific binding)×100) and as a percent inhibition of control specific binding (100−((measured specific binding/control specific binding)×100)) obtained in the presence of the test compounds. The specific ligand binding to the receptors is defined as the difference between the total binding and the nonspecific binding determined in the presence of an excess of unlabelled ligand. Scintillation counting was the method of detection of ligand binding. The IC50 values (concentration causing a half-maximal inhibition of control specific binding) were determined by non-linear regression analysis of the competition curves generated with mean replicate values using Hill equation curve fitting (Y=D+[(A−D)/(1+(C/C50)nH)], where Y=specific binding, D=minimum specific binding, A=maximum specific binding, C=compound concentration, C50=IC50, and nH=slope factor). This analysis was performed using a software developed at Cerep (Hill software) and validated by comparison with data generated by the commercial software SigmaPlot® 4.0 for Windows® (© 1997 by SPSS Inc.). The inhibition constants (Ki) were calculated using the Cheng Prusoff equation (Ki=IC50/(1+(L/KD)), where L=concentration of radioligand in the assay, and KD=affinity of the radioligand for the receptor). A scatchard plot was used to determine the Kd.
(§3) Experimental conditions for tests are given in Table 1, the results of tests for representative compounds are given in Tables 2a and 2b (receptors D2 and D3) and in Table 3 (receptors D4).

For experiment [2], the target named is dopaminergic receptors D3 (Homo sapiens, UniProt P35462). Briefly: Radioligand binding assay, dopaminergic D3 receptors. The following applies: test compound 1×10^−6 M.
dopaminergic receptors D3, sequence (P35462 whole entry): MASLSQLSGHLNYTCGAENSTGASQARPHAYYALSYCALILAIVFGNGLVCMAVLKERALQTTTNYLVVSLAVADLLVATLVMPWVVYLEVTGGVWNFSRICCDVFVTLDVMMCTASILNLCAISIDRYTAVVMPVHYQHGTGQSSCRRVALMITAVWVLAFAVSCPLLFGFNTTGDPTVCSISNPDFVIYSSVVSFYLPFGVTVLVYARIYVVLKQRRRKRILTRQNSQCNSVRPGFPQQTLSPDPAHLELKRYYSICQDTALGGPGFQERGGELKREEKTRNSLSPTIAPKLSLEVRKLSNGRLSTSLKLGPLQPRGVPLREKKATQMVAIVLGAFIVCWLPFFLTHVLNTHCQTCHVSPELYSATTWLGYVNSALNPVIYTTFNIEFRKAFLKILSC
Text: as §1, §2, §3

In experiment [3] the target is T1, 5-HT1A receptor (rat hippocampus) (Rattus norvegicus, UniProt P19327).
T1 construct: hippocampus; from tissue; host or cells: rat hippocampus
T1 sequence (P19327 1-422): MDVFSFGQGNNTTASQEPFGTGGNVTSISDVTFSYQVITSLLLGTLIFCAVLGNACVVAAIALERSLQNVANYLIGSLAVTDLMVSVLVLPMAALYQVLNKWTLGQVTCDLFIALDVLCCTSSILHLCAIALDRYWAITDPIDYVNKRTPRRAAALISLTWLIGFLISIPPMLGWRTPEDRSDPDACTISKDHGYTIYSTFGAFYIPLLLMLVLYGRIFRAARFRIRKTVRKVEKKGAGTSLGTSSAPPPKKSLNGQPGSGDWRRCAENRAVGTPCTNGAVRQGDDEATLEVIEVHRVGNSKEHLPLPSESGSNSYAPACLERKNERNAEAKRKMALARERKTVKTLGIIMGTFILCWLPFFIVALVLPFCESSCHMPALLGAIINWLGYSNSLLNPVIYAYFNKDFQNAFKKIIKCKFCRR
Briefly: Radioligand binding assay, serotoninergic 5-HT1A receptors.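 Further: test compound at 1 µM.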 Particulars: binding assay result in %, Table 5a.
Text: as §1, §2
(§4) Experimental conditions for tests are given in Table 4, and results of tests for representative compounds of the invention are given in Table 5a and 5b (receptors 5-HT1A, 5-HT2A, 5-HT6 and 5-HT7) and in Table 6 (receptors 5-HT2C).

The target in another experiment is T2, 5-HT2A receptor (Homo sapiens, UniProt P28223).
T2 construct: purchased PerkinElmer
T2 sequence (P28223 whole entry): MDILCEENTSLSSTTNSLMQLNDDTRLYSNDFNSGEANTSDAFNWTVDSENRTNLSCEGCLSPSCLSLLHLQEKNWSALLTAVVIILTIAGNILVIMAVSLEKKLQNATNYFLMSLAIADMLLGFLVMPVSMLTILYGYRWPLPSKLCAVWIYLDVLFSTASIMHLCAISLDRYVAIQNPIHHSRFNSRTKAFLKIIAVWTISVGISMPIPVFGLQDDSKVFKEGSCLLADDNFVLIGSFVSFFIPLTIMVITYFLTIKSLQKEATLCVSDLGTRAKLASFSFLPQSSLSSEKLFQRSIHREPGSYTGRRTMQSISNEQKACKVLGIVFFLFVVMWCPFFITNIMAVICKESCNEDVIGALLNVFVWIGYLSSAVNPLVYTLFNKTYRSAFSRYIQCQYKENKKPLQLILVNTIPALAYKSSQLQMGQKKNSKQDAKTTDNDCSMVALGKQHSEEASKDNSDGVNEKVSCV
Briefly: Radioligand binding assay, serotoninergic 5-HT2A receptors. Particulars: binding assay result in %, Table 5a.
Text: as §1, §2
5-HT2A: Bryan L. Roth. Assay Protocol Book. University of North Carolina At Chapel Hill. National Institute of Mental Health. Psychoactive Drug Screening Program. Available on-line at 31 Aug. 2008: http://pdsp.med.unc.edu/UNC-CH%20Protocol%20Book.pdf

For another experiment, the target named is T3, 5-HT6 receptor (Homo sapiens, UniProt P50406).
T3 construct: purchased PerkinElmer
T3 sequence (P50406 whole entry): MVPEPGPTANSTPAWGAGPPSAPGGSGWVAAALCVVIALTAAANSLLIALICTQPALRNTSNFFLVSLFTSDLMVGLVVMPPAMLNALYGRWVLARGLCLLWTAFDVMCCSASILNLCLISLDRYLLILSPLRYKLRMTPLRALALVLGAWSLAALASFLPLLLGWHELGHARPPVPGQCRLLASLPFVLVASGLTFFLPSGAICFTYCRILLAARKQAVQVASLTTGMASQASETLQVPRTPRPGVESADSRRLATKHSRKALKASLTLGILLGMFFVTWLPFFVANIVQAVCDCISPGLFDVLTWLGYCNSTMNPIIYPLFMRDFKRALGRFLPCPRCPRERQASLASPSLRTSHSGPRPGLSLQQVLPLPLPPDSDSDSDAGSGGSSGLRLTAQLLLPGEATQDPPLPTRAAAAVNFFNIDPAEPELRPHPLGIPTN
Briefly: Radioligand binding assay, serotoninergic 5-HT6 receptors.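 Further: test compound at 1 µM.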 The following applies: binding assay result in %, Table 5a.
Text: as §1, §2, §4
5-HT6: Bryan L. Roth. Assay Protocol Book. University of North Carolina At Chapel Hill. National Institute of Mental Health. Psychoactive Drug Screening Program. Available on-line at 31 Aug. 2008: http://pdsp.med.unc.edu/UNC-CH %20Protocol%20Book.pdf

The target in the next experiment is T4, 5-HT7 receptor (Homo sapiens, UniProt P34969).
T4 construct: purchased PerkinElmer
T4 sequence (P34969 whole entry): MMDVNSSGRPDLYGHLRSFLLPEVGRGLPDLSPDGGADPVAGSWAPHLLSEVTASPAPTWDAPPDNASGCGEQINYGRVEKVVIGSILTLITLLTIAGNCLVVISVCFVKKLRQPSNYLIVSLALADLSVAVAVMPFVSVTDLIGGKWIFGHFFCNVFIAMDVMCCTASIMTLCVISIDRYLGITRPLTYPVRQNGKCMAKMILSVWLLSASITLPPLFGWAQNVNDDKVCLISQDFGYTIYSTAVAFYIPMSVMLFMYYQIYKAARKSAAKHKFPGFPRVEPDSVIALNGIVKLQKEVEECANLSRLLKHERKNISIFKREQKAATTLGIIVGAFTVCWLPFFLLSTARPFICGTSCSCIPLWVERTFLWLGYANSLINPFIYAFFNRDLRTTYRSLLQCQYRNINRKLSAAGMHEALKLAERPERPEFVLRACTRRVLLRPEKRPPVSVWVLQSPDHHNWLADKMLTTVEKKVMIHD
Briefly: Radioligand binding assay, serotoninergic 5-HT7 receptors.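 Further: test compound at 1 µM.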 Particulars: binding assay result in %, Table 5a.
Text: as §1, §2, §4
5-HT7: Bryan L. Roth. Assay Protocol Book. University of North Carolina At Chapel Hill. National Institute of Mental Health. Psychoactive Drug Screening Program. Available on-line at 31 Aug. 2008: http://pdsp.med.unc.edu/UNC-CH %20Protocol%20Book.pdf

Experiment [4] concerns the target T5, serotonin transporter (SERT) (Homo sapiens, UniProt P31645).
T5 construct: expressed in transfected cells; host or cells: CHO cells
Nature of the experiment: Radioligand binding assay, serotonin transporter (SERT). The following applies: binding assay, test compound 1×10^−6 M.
Text: as §1, §2
Experimental conditions for tests are given in Table 12, and results of tests for representative compounds are given in Tables 13a and 13b.

dopaminergic receptors D2, sequence (P14416 whole entry): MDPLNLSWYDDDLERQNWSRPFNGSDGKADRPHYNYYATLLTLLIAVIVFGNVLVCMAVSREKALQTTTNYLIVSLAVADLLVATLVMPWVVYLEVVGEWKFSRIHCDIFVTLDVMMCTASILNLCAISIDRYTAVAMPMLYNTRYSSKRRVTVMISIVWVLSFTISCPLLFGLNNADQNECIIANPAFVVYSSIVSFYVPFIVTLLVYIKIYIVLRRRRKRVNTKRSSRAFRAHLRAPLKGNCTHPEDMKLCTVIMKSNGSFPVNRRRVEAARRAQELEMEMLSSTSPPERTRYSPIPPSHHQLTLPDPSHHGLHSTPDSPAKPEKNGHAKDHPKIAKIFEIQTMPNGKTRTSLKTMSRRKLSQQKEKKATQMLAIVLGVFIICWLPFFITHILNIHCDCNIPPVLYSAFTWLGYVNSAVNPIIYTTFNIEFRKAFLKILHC
T5 sequence (P31645 whole entry): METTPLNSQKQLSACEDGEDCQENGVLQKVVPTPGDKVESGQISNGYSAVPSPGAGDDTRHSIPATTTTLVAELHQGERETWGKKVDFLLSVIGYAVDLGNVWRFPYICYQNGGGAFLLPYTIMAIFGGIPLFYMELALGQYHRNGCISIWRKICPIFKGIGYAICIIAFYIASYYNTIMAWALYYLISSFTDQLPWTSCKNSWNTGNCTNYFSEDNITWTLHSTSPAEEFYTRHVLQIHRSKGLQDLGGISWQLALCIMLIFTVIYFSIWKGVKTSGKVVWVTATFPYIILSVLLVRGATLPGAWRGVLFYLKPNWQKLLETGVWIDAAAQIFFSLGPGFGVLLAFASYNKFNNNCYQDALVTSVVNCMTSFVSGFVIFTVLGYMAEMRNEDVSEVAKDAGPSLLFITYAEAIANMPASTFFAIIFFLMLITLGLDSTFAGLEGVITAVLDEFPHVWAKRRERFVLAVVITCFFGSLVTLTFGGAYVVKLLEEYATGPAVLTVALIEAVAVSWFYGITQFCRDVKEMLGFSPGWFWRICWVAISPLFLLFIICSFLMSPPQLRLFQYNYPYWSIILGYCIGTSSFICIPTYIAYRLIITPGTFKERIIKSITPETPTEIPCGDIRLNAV

In general, inhibition refers to the drop in the measured response relative to a control, in per cent. With `O=S(=O)(NCC1CN(CCCc2noc3cc(F)ccc23)C1)c1ccc(Cl)s1` [Compound 155, 5-Chloro-N-[[1-[3-(6-fluoro-1,2-benzoxazol-3-yl)propyl]azetidin-3-yl]methyl]thiophene-2-sulphonamide], the inhibition at 1 µM stood at 61% in experiment [1]; 68% in experiment [2]; 42% in experiment [3]; 89% on 5-HT2A receptor; 62% on 5-HT6 receptor; 82% at 5-HT7 receptor. Further, the inhibition at 1 µM in experiment [4] was -12%.
Regarding `CCCc1ccc(S(=O)(=O)NCC2CN(CCCc3noc4cc(F)ccc34)C2)cc1` [Compound 157, N-[[1-[3-(6-Fluoro-1,2-benzoxazol-3-yl)propyl]azetidin-3-yl]methyl]-4-propyl-benzenesulphonamide], the inhibition at 1 µM was found to be 81% in experiment [1]; 72% in experiment [2]; 61% in experiment [3]; 95% at 5-HT2A receptor; 80% at 5-HT6 receptor; 93% at 5-HT7 receptor. Also, in experiment [4], the inhibition at 1 µM came to 25%.
Turning to `O=S(=O)(NC1CCN(CCCc2noc3cc(F)ccc23)C1)c1ccc(Cl)cc1` (stereo not drawn) [Compound 208, 4-Chloro-N-[1-[3-(6-fluoro-1,2-benzoxazol-3-yl)propyl]pyrrolidin-3-yl]benzenesulphonamide], the inhibition at 1 µM is 90% in experiment [1]; 49% in experiment [2]; 9% in experiment [3]; 100% at 5-HT2A receptor; 87% on 5-HT6 receptor; 96% at 5-HT7 receptor. In experiment [4], the inhibition at 1 µM is -2%.
As for `Cc1ccc(S(=O)(=O)NC2CCN(CCCc3noc4cc(F)ccc34)C2)cc1` (stereo not drawn) [Compound 209, N-[1-[3-(6-Fluoro-1,2-benzoxazol-3-yl)propyl]pyrrolidin-3-yl]-4-methyl-benzenesulphonamide], the inhibition at 1 µM in experiment [1] stood at 64%; in experiment [2], 34%; in experiment [3], 11%; on 5-HT2A receptor it was 86%; at 5-HT6 receptor, 62%; on 5-HT7 receptor, 90%. For the same compound, in experiment [4], the inhibition at 1 µM turned out to be 6%.
Turning to `COc1ccc(S(=O)(=O)NC2CCN(CCCc3noc4cc(F)ccc34)C2)cc1` (stereo not drawn) [Compound 213, N-[1-[3-(6-Fluoro-1,2-benzoxazol-3-yl)propyl]pyrrolidin-3-yl]-4-methoxybenzenesulphonamide], the inhibition at 1 µM was 81% in experiment [1]; 57% in experiment [2]; 63% in experiment [3]; 100% on 5-HT2A receptor; 78% at 5-HT6 receptor; 93% at 5-HT7 receptor. The inhibition at 1 µM in experiment [4] worked out at 12%.
`Cn1ccc2c(S(=O)(=O)NC3CCN(CCCc4noc5cc(F)ccc45)C3)cccc21` (stereo not drawn) [Compound 219, N-[1-[3-(6-Fluoro-1,2-benzoxazol-3-yl)propyl]pyrrolidin-3-yl]-1-methyl-indole-4-sulphonamide]: the inhibition at 1 µM in experiment [1] was determined as 96%; in experiment [2] it was 81%; in experiment [3], 85%; on 5-HT2A receptor it was 99%; at 5-HT6 receptor, 94%; on 5-HT7 receptor, 96%. The inhibition at 1 µM in experiment [4] was found to be 52%.
As for `O=S(=O)(NCC1CCN(CCCc2noc3cc(F)ccc23)C1)c1ccc2c(c1)OCO2` (stereo not drawn) [Compound 235, N-[[1-[3-(6-Fluoro-1,2-benzoxazol-3-yl)propyl]pyrrolidin-3-yl]methyl]-1,3-benzodioxole-5-sulphonamide], the inhibition at 1 µM in experiment [1] was 31%; in experiment [2], 41%; in experiment [3] it was 14%; at 5-HT2A receptor it was 91%; on 5-HT6 receptor, 62%; on 5-HT7 receptor, 81%. Moreover, in experiment [4], the inhibition at 1 µM came to 11%.
On to `O=S(=O)(NCC1CCN(CCCc2noc3cc(F)ccc23)C1)c1ccc(Cl)cc1` (stereo not drawn) [Compound 242, 4-Chloro-N-[[1-[3-(6-fluoro-1,2-benzoxazol-3-yl)propyl]pyrrolidin-3-yl]methyl]benzenesulphonamide], for which the inhibition at 1 µM in experiment [1] amounted to 55%; in experiment [2], 71%; in experiment [3], 11%; on 5-HT2A receptor, 99%; on 5-HT6 receptor, 60%; on 5-HT7 receptor it was 83%. Moreover, the inhibition at 1 µM in experiment [4] was determined as 37%.
As for `O=S(=O)(NCC1CCN(CCCc2noc3cc(F)ccc23)C1)c1cccc(Cl)c1` (stereo not drawn) [Compound 243, 3-Chloro-N-[[1-[3-(6-fluoro-1,2-benzoxazol-3-yl)propyl]pyrrolidin-3-yl]methyl]benzenesulphonamide], the inhibition at 1 µM in experiment [1] was found to be 14%; in experiment [2] it was 47%; in experiment [3], 21%; on 5-HT2A receptor, 90%; on 5-HT6 receptor it was 75%; at 5-HT7 receptor it was 89%. For the same compound, in experiment [4], the inhibition at 1 µM was found to be 7%.
Consider `O=S(=O)(NCC1CCN(CCCc2noc3cc(F)ccc23)C1)c1ccccc1` (stereo not drawn) [Compound 245, N-[[1-[3-(6-Fluoro-1,2-benzoxazol-3-yl)propyl]pyrrolidin-3-yl]methyl]benzenesulphonamide], for which the inhibition at 1 µM in experiment [1] is -4%; in experiment [2] it was 40%; in experiment [3] it was 35%; on 5-HT2A receptor it was 73%; on 5-HT6 receptor, 57%; on 5-HT7 receptor it was 81%. Also, the inhibition at 1 µM in experiment [4] is 18%.
`COc1cccc(S(=O)(=O)NCC2CCN(CCCc3noc4cc(F)ccc34)C2)c1` (stereo not drawn) [Compound 250, N-[[1-[3-(6-Fluoro-1,2-benzoxazol-3-yl)propyl]pyrrolidin-3-yl]methyl]-3-methoxy-benzenesulphonamide]: the inhibition at 1 µM in experiment [1] came out at 18%; in experiment [2], 55%; in experiment [3], 30%; at 5-HT2A receptor, 87%; on 5-HT6 receptor, 74%; on 5-HT7 receptor, 91%. Further, the inhibition at 1 µM in experiment [4] was determined as 23%.
As to `O=S(=O)(NCC1CCN(CCCc2noc3cc(F)ccc23)C1)c1ccc(F)cc1` (stereo not drawn) [Compound 252, 4-Fluoro-N-[[1-[3-(6-fluoro-1,2-benzoxazol-3-yl)propyl]pyrrolidin-3-yl]methyl]benzenesulphonamide], the inhibition at 1 µM was 36% in experiment [1]; 43% in experiment [2]; 44% in experiment [3]; 89% on 5-HT2A receptor; 75% at 5-HT6 receptor; 90% at 5-HT7 receptor. In experiment [4], the inhibition at 1 µM was -2%.
